Source: US20240262804A1, “NITROGEN-CONTAINING HETEROCYCLIC KETONES, PREPARATION METHODS AND MEDICINAL USES THEREOF” (Hansoh Bio LLC, priority 2021, published 2024)
pIC50: −log10 of the molar value.

Molecular target: bovine cardiac myosin (Bos taurus (Bovine), UniProt Q9BE39)
Assay: Myosin inhibitory potency: PK/LDH-coupled ATPase assay on bovine skinned cardiac myofibrils
Type: biochemical
Details: pCa=6.25, 50 μM ATP, 25° C., read-out: myosin inhibition activity IC50
Procedure: The average rates of ATPase inhibition, and the IC50 values are determined by Victor Nivo multimode plate reader (PerkinElmer, USA).
As to the assays background, a biochemical assay couples the ATPase activity of bovine cardiac myosin to an enzymatic coupling system consisting of pyruvate kinase and lactate dehydrogenase (PK/LDH) and monitoring the absorbance decrease of NADH (at 340 nm) as a function of time to measure the inhibitory ability of small molecule agents. In the assay, PK converts ADP (Adenosine diphosphate) to ATP (adenosine triphosphate) by converting PEP (phosphoenolpyruvate) to pyruvate. Pyruvate is then converted to lactate by LDH by converting NADH (nicotinamide adenine dinucleotide) to NAD (oxidized nicotinamide adenine dinucleotide).
In our experiments, bovine skinned cardiac myofibrils were isolated from the frozen bovine left ventricle as myosin's source in the ATPase assay. The calcium concentration that achieves a 50% (pCa50 or pCa=6.25) activation of the myofibril system was chosen as the final condition for assessing the activation activity according to the literature (DOI: 10.1074/jbc.M117.776815). Myofibrils ATPase activity was measured in a buffered solution containing 12 mM PIPES (piperazine-N, N′-bis(2-ethane sulfonic acid) and 2 mM magnesium chloride at pH 6.8 (PM12 buffer). Final assay conditions were 1 mg/mL of bovine cardiac myofibrils, 1:20 of stock PK/LDH (Sigma-Aldrich, Cat No. P0294-5X5ML), 50 μM ATP, 1 mM DTT (dithiothreitol), 0.75 mM NADH, 1.5 mM PEP at pCa50 (pCa=6.25). Compounds were dissolved in DMSO (dimethyl sulfoxide). Serial dilution of compounds was created such that the final desired concentration of compound would be achieved in a volume of 150 μL with a fixed DMSO concentration of 2% (v/v). 75 μL of a solution containing bovine cardiac myofibrils, PK/LDH, and calcium were added to a 96 well plate for a 7 point dose-response. In some circumstances, 10 point-response was used to repeat the ATPase assays on compounds of interest. Compounds were added to the myofibrils solution and incubated for 5 minutes. The enzymatic reaction was started with the addition of 75 μL of a solution containing ATP, PEP, NADH, compounds, and calcium. The ATPase activity was measured by reading absorbance at 340 nm in a PerkinElmer Victor Nivo plate reader at 25° C. in kinetic mode for 15 minutes using clear bottom plates. The slopes of the absorbance changes as a function of time for the first 10 minutes were normalized to slopes on the control wells containing all reagents, including DMSO, but without compounds. This normalized rate was then plotted as a function of small molecule concentration in GraphPad prism 9. The data were fitted to a four-parameter fit, and IC50 was calculated using Graphpad Prism 9.

Chain of bovine cardiac myosin (Q9BE39 whole entry): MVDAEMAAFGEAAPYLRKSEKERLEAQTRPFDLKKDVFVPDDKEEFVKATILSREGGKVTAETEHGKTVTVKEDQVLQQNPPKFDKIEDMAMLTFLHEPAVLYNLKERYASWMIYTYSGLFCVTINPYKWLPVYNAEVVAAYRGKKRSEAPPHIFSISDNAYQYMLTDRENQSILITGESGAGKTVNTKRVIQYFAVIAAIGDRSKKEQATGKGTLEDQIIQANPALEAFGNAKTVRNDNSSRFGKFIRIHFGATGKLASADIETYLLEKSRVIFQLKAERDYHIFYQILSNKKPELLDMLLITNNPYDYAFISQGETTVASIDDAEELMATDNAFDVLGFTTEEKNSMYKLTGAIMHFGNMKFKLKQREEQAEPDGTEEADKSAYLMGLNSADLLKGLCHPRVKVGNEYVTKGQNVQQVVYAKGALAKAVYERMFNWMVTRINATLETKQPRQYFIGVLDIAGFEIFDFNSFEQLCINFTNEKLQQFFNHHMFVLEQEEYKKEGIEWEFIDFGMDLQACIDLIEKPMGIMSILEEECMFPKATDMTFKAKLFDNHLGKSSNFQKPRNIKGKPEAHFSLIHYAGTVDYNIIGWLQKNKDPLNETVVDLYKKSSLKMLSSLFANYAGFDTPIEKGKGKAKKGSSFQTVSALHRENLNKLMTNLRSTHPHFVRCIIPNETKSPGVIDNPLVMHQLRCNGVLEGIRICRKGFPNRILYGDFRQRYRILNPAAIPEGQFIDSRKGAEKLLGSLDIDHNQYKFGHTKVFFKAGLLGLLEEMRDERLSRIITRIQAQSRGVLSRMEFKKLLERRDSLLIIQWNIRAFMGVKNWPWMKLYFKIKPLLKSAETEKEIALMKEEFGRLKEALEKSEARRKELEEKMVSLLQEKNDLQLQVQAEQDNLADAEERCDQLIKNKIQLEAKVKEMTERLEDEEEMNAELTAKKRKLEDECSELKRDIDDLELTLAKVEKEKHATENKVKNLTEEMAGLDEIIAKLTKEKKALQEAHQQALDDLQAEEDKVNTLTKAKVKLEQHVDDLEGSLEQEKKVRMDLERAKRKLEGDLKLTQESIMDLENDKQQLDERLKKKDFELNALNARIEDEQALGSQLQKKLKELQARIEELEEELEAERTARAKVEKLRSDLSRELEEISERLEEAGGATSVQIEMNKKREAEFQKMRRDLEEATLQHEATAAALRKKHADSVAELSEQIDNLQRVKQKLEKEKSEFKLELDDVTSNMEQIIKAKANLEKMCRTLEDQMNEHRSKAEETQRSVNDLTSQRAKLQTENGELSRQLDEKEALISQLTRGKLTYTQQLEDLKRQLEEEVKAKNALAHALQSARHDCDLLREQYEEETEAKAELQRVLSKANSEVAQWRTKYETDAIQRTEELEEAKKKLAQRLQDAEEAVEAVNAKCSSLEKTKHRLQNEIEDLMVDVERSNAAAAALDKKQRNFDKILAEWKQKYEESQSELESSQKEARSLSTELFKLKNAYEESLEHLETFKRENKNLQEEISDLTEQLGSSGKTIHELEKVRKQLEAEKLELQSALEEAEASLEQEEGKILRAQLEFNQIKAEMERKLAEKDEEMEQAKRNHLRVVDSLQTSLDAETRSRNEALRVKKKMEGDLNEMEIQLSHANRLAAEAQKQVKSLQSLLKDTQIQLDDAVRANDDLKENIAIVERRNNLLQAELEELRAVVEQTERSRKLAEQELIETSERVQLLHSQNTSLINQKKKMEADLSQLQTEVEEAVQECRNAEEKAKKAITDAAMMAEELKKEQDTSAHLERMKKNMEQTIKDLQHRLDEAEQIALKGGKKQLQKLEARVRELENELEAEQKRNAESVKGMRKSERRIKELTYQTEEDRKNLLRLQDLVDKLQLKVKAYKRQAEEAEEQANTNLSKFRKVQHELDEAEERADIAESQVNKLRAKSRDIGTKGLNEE
Chain of bovine cardiac myosin (P85100 whole entry partner): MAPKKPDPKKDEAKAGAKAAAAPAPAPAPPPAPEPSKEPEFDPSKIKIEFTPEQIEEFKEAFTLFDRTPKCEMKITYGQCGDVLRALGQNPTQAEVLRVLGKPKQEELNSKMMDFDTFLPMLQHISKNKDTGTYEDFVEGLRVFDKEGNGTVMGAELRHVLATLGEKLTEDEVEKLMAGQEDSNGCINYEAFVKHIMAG
Chain of bovine cardiac myosin (Q3SZE5 whole entry partner): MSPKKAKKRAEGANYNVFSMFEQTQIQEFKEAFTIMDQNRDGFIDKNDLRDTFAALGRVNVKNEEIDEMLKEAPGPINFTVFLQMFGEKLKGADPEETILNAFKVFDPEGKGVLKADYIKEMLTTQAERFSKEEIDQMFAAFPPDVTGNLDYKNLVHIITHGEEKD

| pIC50 | SMILES |
| --- | --- |
| 5.82 | C[C@H](Nc1nc(=O)n(C2CCOCC2)c(=O)[nH]1)c1cccc(F)c1F [Example 170] |
| 6.04 | COc1cc([C@H](C)Nc2nc(=O)n(C3CCOCC3)c(=O)[nH]2)ccc1F [Example 171] |
| 5.55 | C[C@H](Nc1nc(=O)n([C@H](C)C(F)(F)F)c(=O)[nH]1)c1ccc(OC(F)(F)F)cc1 [Example 174] |
| 5.56 | C[C@H](Nc1nc(=O)n([C@@H](C)C(F)(F)F)c(=O)[nH]1)c1ccc(OC(F)(F)F)cc1 [Example 175] |
| 5.10 | C[C@H](Nc1nc(=O)n(CC(F)(F)F)c(=O)[nH]1)c1ccc(OC(F)(F)F)cc1 [Example 176] |
| 5.76 | CC(C)n1c(=O)nc(N[C@@H](C)c2ccc(OC(F)(F)F)cc2)[nH]c1=O [Example 177] |
| 5.48 | C[C@H](Nc1nc(=O)n([C@H](C)C(F)(F)F)c(=O)[nH]1)c1cccc(F)c1 [Example 178] |
| 5.44 | C[C@H](Nc1nc(=O)n([C@@H](C)C(F)(F)F)c(=O)[nH]1)c1cccc(F)c1 [Example 179] |
| 5.62 | CC(C)n1c(=O)nc(N[C@@H](C)c2cccc(F)c2)[nH]c1=O [Example 181] |
| 6.13 | CCc1ccc([C@H](C)Nc2nc(=O)n(C3CCOCC3)c(=O)[nH]2)cc1 [Example 186] |
| 5.48 | Cc1cccc(C(C)Nc2nc(=O)n(C3CCNCC3)c(=O)[nH]2)c1 (stereo not drawn) [Example 187] |
| 5.36 | CC(Nc1nc(=O)n(C2CCNCC2)c(=O)[nH]1)c1ccc(F)cc1 (stereo not drawn) [Example 188] |
| 5.17 | Cc1ccccc1C(C)Nc1nc(=O)n(C2CCNCC2)c(=O)[nH]1 (stereo not drawn) [Example 189] |
| 5.33 | CC(Nc1nc(=O)n(C2CCNCC2)c(=O)[nH]1)c1ccccc1F (stereo not drawn) [Example 190] |
| 5.12 | CC(Nc1nc(=O)n(C2CCNCC2)c(=O)[nH]1)c1cccc(F)c1 (stereo not drawn) [Example 191] |
| 5.24 | CC(Nc1nc(=O)n(C2CCNCC2)c(=O)[nH]1)c1cccc(C(F)(F)F)c1 (stereo not drawn) [Example 192] |
| 5.29 | CC(Nc1nc(=O)n(C2CCNCC2)c(=O)[nH]1)c1ccc(C(F)(F)F)cc1 (stereo not drawn) [Example 193] |
| 5.35 | Cc1ccc(C(C)Nc2nc(=O)n(C3CCNCC3)c(=O)[nH]2)cc1 (stereo not drawn) [Example 194] |
| 5.57 | C[C@H](Nc1nc(=O)n(C2CCOCC2)c(=O)[nH]1)c1cc(C(F)(F)F)cc(C(F)(F)F)c1 [Example 196] |

| pIC50 | SMILES |
| --- | --- |
| 5.69 | Cc1c(-c2cccc([C@H](C)Nc3nc(=O)n(C4CCOCC4)c(=O)[nH]3)c2)cnn1C [Example 197] |
| 5.92 | Cc1noc(C)c1-c1cccc([C@H](C)Nc2nc(=O)n(C3CCOCC3)c(=O)[nH]2)c1 [Example 198] |
| 5.68 | C[C@H](Nc1nc(=O)n(C2CCOCC2)c(=O)[nH]1)c1cccc(-n2cccn2)c1 [Example 199] |
| 5.75 | C[C@H](Nc1nc(=O)n(C2CCOCC2)c(=O)[nH]1)c1cccc(-n2ccnc2)c1 [Example 200] |
| 5.31 | C[C@H](Nc1nc(=O)n(C2CCOCC2)c(=O)[nH]1)c1cccc(-n2cncn2)c1 [Example 201] |
| 6.31 | C[C@H](Nc1nc(=O)n(C2CCOCC2)c(=O)[nH]1)c1cccc(OC(F)(F)F)c1 [Example 202] |
| 5.68 | Cc1nccn1-c1cccc([C@H](C)Nc2nc(=O)n(C3CCOCC3)c(=O)[nH]2)c1 [Example 203] |
| 5.27 | Cc1cnn(-c2cccc([C@H](C)Nc3nc(=O)n(C4CCOCC4)c(=O)[nH]3)c2)c1 [Example 204] |
| 5.42 | Cc1cn(-c2cccc([C@H](C)Nc3nc(=O)n(C4CCOCC4)c(=O)[nH]3)c2)cn1 [Example 205] |
| 5.42 | C[C@H](Nc1nc(=O)n(C2CCOCC2)c(=O)[nH]1)c1cccc(N2CCOCC2)c1 [Example 206] |
| 5.88 | C[C@H](Nc1nc(=O)n(C2CCOCC2)c(=O)[nH]1)c1cccc(C2CCOCC2)c1 [Example 207] |
| 5.80 | C[C@H](Nc1nc(=O)n(C2CCOCC2)c(=O)[nH]1)c1cccc(C2=CCOCC2)c1 [Example 208] |
| 5.71 | C[C@H](Nc1nc(=O)n(C2CCOCC2)c(=O)[nH]1)c1cccc(C2CCNCC2)c1 [Example 209] |
| 5.48 | C[C@H](Nc1nc(=O)n(C2CCOCC2)c(=O)[nH]1)c1cccc(C2=CCN(C(=O)OC(C)(C)C)CC2)c1 [Example 210] |
| 5.88 | C[C@H](Nc1nc(=O)n(C2CCOCC2)c(=O)[nH]1)c1cccc(C2CCN(C(=O)OC(C)(C)C)CC2)c1 [Example 211] |
| 4.75 | C[C@H](Nc1nc(=O)n(C2CCOCC2)c(=O)[nH]1)c1cccc(N2CCN(C)CC2)c1 [Example 212] |
| 5.11 | CC(=O)N1CCN(c2cccc([C@H](C)Nc3nc(=O)n(C4CCOCC4)c(=O)[nH]3)c2)CC1 [Example 213] |
| 5.47 | C[C@H](Nc1nc(=O)n(C2CCOCC2)c(=O)[nH]1)c1cccc(N2CC(C)(C)C2)c1 [Example 214] |
| 6.06 | C[C@H](Nc1nc(=O)n(C2CCOCC2)c(=O)[nH]1)c1cccc(C2CCCCC2)c1 [Example 215] |

| pIC50 | SMILES |
| --- | --- |
| 5.89 | C[C@H](Nc1nc(=O)n(C2CCOCC2)c(=O)[nH]1)c1cccc(N2CCCCC2)c1 [Example 216] |
| 5.44 | CC(Nc1nc(=O)n(C2CCOCC2)c(=O)[nH]1)c1cccc(-n2cccn2)c1 (stereo not drawn) [Example 217] |
| 5.47 | Cc1nccn1-c1cccc(C(C)Nc2nc(=O)n(C3CCOCC3)c(=O)[nH]2)c1 (stereo not drawn) [Example 219] |
| 5.88 | C[C@H](Nc1nc(=O)n(C2CCOCC2)c(=O)[nH]1)c1cccc(-c2ccccc2)c1 [Example 220] |
| 5.60 | C[C@H](Nc1nc(=O)n(C2CCOCC2)c(=O)[nH]1)c1cccc(-c2ccncc2)c1 [Example 221] |
| 5.69 | C[C@H](Nc1nc(=O)n(C2CCOCC2)c(=O)[nH]1)c1cccc(-c2cccnc2)c1 [Example 222] |
| 6.05 | C[C@H](Nc1nc(=O)n(C2CCOCC2)c(=O)[nH]1)c1cccc(-c2cncnc2)c1 [Example 223] |
| 6.15 | C[C@H](Nc1nc(=O)n(C2CCOCC2)c(=O)[nH]1)c1cccc(-c2ccccc2F)c1 [Example 224] |
| 6.09 | Cc1ccccc1-c1cccc([C@H](C)Nc2nc(=O)n(C3CCOCC3)c(=O)[nH]2)c1 [Example 225] |
| 5.76 | C[C@H](Nc1nc(=O)n(C2CCOCC2)c(=O)[nH]1)c1cccc(-c2ccc(F)cc2)c1 [Example 226] |
| 5.78 | C[C@H](Nc1nc(=O)n(C2CCOCC2)c(=O)[nH]1)c1cccc(-c2cc[nH]n2)c1 [Example 227] |
| 5.38 | C[C@H](Nc1nc(=O)n(C2CCOCC2)c(=O)[nH]1)c1cccc(-c2cn[nH]c2)c1 [Example 228] |
| 6.09 | C[C@H](Nc1nc(=O)n(C2CCOCC2)c(=O)[nH]1)c1cccc(-c2cnn(C)c2)c1 [Example 229] |
| 5.24 | Cc1n[nH]cc1-c1cccc([C@H](C)Nc2nc(=O)n(C3CCOCC3)c(=O)[nH]2)c1 [Example 230] |
| 5.08 | C[C@H](Nc1nc(=O)n(C2CCC(O)C2)c(=O)[nH]1)C1CCCCC1 (stereo partly drawn) [Example 232] |
| 5.15 | CC(C)C(=O)N1CCC(n2c(=O)nc(N[C@@H](C)C3CCCCC3)[nH]c2=O)CC1 [Example 234] |
| 5.78 | C[C@H](Nc1nc(=O)n(C2CCNCC2)c(=O)[nH]1)C1CCCCC1 [Example 235] |
| 5.58 | CC(=O)N1CCC(n2c(=O)nc(N[C@@H](C)C3CCCCC3)[nH]c2=O)CC1 [Example 236] |
| 5.32 | C[C@H](Nc1nc(=O)n([C@H]2CC[C@@H](O)CC2)c(=O)[nH]1)C1CCCCC1 [Example 237] |
